Data from patent US12691101B2, “Compound and method for preventing or treating of respiratory diseases comprising the same as an active ingredient” (YONSEI UNIVERSITY, UNIVERSITY - INDUSTRY FOUNDATION (UIF), priority 2019, dated 2026).

Assays:
mouse pendrin (mPDS) = molecular target: T1, mouse pendrin (mPDS) (Mus musculus, UniProt Q9R155); assay: Mouse pendrin-mediated Cl^−/I^− exchange activity in CHO-K1 cells; type: cell-based
T1 construct: expressed in transfected cells; host or cells: CHO-K1
Method: (§1) (A) The inhibition of mouse pendrin (mPDS)-mediated Cl^−/I^− exchange activity by F56 was measured in CHO-K1 cells (mean±S.E., n=5). The indicated concentration of F56 was pretreated for 10 minutes. (B) Summary of dose-response for inhibition of the human pendrin (hPDS)-mediated (closed circle, FIG. (a), C) and mPDS-mediated (open circle) Cl^−/I^− exchange activity. (C-F) Representative traces of intracellular pH in CHO-K1 cells expressing SLC26A3, SLC26A6, SLC26A7 and SLC26A9 were shown. The application of Cl^− free solution induced intracellular alkalization by Cl^−/HCO3^− exchange. The indicated concentration of F56 was pretreated for 10 minutes. (G) the effect of F56 (100 μM) on the CFTR chloride channel activity was measured in FRT cells expressing human CFTR. The CFTR current was activated by 20 μM forskolin and was inhibited by 10 μM CFTRinh-172. (H) The effect of F56 (100 μM) on the AN01 chloride channel activity was measured in FRT cells expressing human AN01. Before 10 minutes prior to AN01 activation by 100 μM ATP, F56 was added. (Right) Peak current summary (mean±S.E., n=3). (I) The effect of F56 on the hERG (Kv11.1) potassium channel activity was measured in HEK293T cells expressing human Kv11.1 (mean±S.E., n=4). […] (J) The effect of F56 on the 5-HT2A channel activity was measured in FRT cells expressing human 5-HT2A (mean±S.E., n=4). […]

SLC26A3 = molecular target: T2, SLC26A3 (Homo sapiens, UniProt P40879); assay: Cl^−/HCO3^− exchange in CHO-K1 cells expressing SLC26A3; type: cell-based; conditions: weakly inhibited
T2 construct: expressed in transfected cells; host or cells: CHO-K1
Method: as §1

SLC26A6 = molecular target: T3, SLC26A6 (Homo sapiens, UniProt Q9BXS9); assay: Cl^−/HCO3^− exchange in CHO-K1 cells expressing SLC26A6; type: cell-based; conditions: weakly inhibited
T3 construct: expressed in transfected cells; host or cells: CHO-K1
Method: as §1

pendrin [1] = assay: Protein expression measurement in IL-4-treated HNE cells, pendrin; type: cell-based, human; conditions: long-term treatment
Method: (§2) CHO-K1 and HNE cells were lysed with a cytolytic buffer (50 mM Tris-HCl, pH 7.4, 1% Nonidet P-40, 0.25% sodium deoxycholate, 150 mM NaCl, 1 mM EDTA, 1 mM Na3VO4, and protease inhibiting mixture). The total cell lysates were under centrifugation at 15,000×g for 10 minutes at 4° C. to remove cellular debris and the same amount (50 μg protein or 5 μg protein/lane) of supernatant protein was isolated on 4-12% Tris-glycine precast gel (KOMA BIOTECH, Seoul, Korea) and transferred to PVDF membrane (Millipore, Billerica, MA, USA). The membrane was blocked with 5% fat-free skim milk in TBS containing 0.1% Tween 20 (TBST) or 5% bovine serum albumin in TBS at a room temperature for 1 hour. Then, the membrane was cultured at 4° C. overnight with a primary antibody against pendrin (sc-50346; Santa Cruz Biotechnology, Santa Cruz, CA, USA), NF-κB p65 (4764S; Cell Signaling Technology, Danvers, MA, USA), p-NF-κB p65 (3033S; Cell Signaling Technology), IkBα (9242S; Cell Signaling Technology), p-IkBα (9141S; Cell Signaling Technology), β-actin (sc-47778; Santa Cruz Biotechnology), or AN01 (ab64085; Abeam). After washing with 0.05% Tween 20 (TBST) in PBS, the blot was additionally cultured with a secondary antibody (Cell Signaling Technology, Danvers, MA) at a room temperature for 60 minutes. […]

AN01 = assay: Protein expression measurement in IL-4-treated HNE cells, AN01; type: cell-based, human; conditions: long-term treatment
Method: as §2

SCN^− transport = assay: Epithelial SCN^− transport in IL-4-treated HNE cells; type: cell-based, human; conditions: 30 μM, 30 minutes
Method: Nasal epithelial cells were plated on a transwell permeable supporter and cultured in ALI (air-liquid interface) for 14 days. After completely differentiated epithelial cells were cultured with IL-4 (Invitrogen, 10 ng/mL) for 48 hours, F56 (30 μM) or vehicle was added for 30 minutes. The transwell insert having cells was washed with PBS and the basal side was treated with 1 mL PBS containing 10 mM glucose and 5 μCi S^14CN (total concentration SCN^−: 86 μM). The apical side of the transwell was filled with 0.5 mL PBS containing 5 μM amiloride to block epithelial sodium. Subsequently, the apical fluid was collected every 5 minutes and placed in scintillation vials for evaluation of radioactivity.

pendrin [2] = assay: Pendrin protein expression in LPS-treated human alveolar epithelial cells (hAEC); type: cell-based
Method: The lung tissue was harvested and dissolved in a homogenization buffer (PRO-PREP™ extraction solution, iNtRON Biotechnology). The sample was centrifuged at 4° C. for 30 minutes at 13000 g. The supernatant protein concentration was determined by BCA analysis (Thermo Fisher Scientific). The same amount of protein was separated by SDS/PAGE and transferred to a nitrocellulose membrane. The membrane was blocked with 5% skim milk in TBS-T (TBS (170-6435, Bio-Rad Laboratories) and 1% Tween-20 (170-6531, Bio-Rad Laboratories) for 1 hours. Then, the membrane was cultured overnight with the primary antibody diluted with 5% skim milk in TBS-T at 4° C. After washing with TBS-T, the blot was cultured with horseradish peroxidase-combined secondary antibody and 5% skim milk in TBS-T at a room temperature for 1 hour, and then developed using Super-Signal West Pico chemiluminescence detection kit. The antibody used in the present invention includes rabbit SLC26A4 (ab98091, abcam), mouse phospho-Iκ (9246, Cell Signaling Technology), mouse Iκ (4814, Cell Signaling Technology), and rabbit α-tubulin (PA5-16891, Cell Signaling Technology). Western blot quantization was performed using ImageJ (Image Processing and Analysis in Java; NIH, USA) software.

Duox2 mRNA = Duox2 mRNA expression in LPS-treated hAEC, real-time PCR; type: cell-based, human
Method: The total messenger RNA (mRNA) was extracted using TRIzol reagent (Invitrogen, Carlsbad, CA, USA), and was reverse-transcribed using a random hexamer primer, an oligo(dT) primer and SuperScript® III reverse transcriptase (Invitrogen). Quantitative real-time PCR was performed using StepOnePlus Real-Time PCR system (Applied Biosystems, Foster City, CA, USA) and Thunderbird SYBR qPCR mix (Tokyobo, Osaka, Japan). Thermal cycling conditions included the initial stage at 95° C. for 5 minutes, and subsequent 40 cycles at 95° C. for 10 seconds, at 55° C. for 20 seconds and at 72° C. for […].

T1 sequence (Q9R155 whole entry): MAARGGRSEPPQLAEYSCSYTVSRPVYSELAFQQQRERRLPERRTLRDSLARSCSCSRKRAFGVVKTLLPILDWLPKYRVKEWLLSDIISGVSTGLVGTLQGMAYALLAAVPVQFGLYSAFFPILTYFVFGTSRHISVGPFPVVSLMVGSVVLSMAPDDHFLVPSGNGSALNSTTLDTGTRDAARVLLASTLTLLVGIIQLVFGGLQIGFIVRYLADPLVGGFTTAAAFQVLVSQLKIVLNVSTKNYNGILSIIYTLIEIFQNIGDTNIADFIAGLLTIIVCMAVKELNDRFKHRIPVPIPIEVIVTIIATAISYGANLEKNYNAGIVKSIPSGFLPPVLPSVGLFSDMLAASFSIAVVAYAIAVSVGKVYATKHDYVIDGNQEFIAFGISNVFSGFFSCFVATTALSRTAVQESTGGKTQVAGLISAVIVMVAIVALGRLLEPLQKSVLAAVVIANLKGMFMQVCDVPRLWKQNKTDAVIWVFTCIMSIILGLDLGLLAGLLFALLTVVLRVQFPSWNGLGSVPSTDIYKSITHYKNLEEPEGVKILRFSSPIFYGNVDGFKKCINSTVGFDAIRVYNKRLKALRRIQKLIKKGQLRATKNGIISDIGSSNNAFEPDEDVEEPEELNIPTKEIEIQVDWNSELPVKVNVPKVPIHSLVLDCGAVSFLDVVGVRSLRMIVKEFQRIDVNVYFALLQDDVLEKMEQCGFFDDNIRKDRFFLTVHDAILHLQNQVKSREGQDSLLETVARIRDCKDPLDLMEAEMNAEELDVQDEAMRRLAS
T2 sequence (P40879 whole entry, species assumed): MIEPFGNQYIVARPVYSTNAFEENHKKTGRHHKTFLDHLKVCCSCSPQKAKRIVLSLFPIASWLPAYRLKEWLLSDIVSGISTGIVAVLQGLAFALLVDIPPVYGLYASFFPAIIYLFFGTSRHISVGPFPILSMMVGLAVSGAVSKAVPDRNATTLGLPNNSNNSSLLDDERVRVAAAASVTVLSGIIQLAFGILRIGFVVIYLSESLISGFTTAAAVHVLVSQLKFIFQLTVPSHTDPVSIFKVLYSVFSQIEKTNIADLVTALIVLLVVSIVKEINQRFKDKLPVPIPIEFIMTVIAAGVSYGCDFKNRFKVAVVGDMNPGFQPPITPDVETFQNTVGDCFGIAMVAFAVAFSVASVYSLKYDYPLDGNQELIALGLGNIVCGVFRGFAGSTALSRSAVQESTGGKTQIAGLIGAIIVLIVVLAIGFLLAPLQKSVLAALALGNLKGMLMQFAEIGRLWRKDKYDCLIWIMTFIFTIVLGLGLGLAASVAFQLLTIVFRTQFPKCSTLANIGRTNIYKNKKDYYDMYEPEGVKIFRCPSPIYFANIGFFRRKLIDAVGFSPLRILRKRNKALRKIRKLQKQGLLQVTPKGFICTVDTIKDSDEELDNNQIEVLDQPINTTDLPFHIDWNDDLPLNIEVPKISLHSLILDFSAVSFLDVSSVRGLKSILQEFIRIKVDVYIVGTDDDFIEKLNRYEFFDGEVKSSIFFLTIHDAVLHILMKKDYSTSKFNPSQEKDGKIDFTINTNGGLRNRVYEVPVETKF
T3 sequence (Q9BXS9 whole entry, species assumed): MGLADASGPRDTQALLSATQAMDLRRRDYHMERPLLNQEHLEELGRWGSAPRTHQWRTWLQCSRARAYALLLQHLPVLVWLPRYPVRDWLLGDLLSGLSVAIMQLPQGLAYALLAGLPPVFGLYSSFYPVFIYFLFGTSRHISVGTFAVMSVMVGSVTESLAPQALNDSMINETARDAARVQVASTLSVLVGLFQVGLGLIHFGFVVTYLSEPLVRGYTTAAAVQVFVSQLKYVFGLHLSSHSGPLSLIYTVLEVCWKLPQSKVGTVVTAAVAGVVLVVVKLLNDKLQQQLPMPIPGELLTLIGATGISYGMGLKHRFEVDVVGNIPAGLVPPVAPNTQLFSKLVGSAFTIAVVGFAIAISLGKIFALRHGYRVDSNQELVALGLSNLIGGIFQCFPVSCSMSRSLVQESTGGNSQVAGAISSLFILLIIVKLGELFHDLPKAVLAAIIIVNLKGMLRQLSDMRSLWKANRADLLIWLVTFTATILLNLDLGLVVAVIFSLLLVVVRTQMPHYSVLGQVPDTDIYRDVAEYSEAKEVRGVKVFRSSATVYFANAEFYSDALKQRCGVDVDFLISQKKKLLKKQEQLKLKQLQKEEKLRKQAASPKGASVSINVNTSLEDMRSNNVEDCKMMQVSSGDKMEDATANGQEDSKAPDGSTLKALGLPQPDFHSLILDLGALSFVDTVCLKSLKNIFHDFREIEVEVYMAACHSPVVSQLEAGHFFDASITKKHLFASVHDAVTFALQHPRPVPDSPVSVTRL

inhibition of mouse versus human pendrin-mediated exchange (mouse pendrin (mPDS)): almost the same efficacy | IC50 (SLC26A3): > 100 µM | IC50 (SLC26A6): > 100 µM
Compound: CC(C)(C)c1ccc(C2=NC(=Cc3cccs3)C(=O)O2)cc1 [F56, 2-(4-(tert-butyl)phenyl)-4-(thiophen-2-ylmethylene)oxazol-5(4H)-one]
pendrin protein expression level (pendrin [1]): strongly reduced | IL-4-induced upregulation of AN01 (AN01): not affected | SCN^− concentration on the apical surface (SCN^− transport): inhibited | protein expression level of pendrin (pendrin [2]): reduced | mRNA expression level of Duox2 (Duox2 mRNA): did not change
